Data from patent publication US11981658B2, “Substituted aminopyridine compounds as EGFR inhibitors” (YUHAN CORPORATION, priority 2021, dated 2024).
Where a name gives a salt, the structure may show the parent alone. Read-outs that look alike come from different tables or passages of the source.

Legend:
EGFR L858R/C797S = EGFR L858R/C797S (Homo sapiens, UniProt P00533, C797S/L858R); assay: Biochemical EGFR kinase inhibition assay (Lance Ultra TR-FRET), double mutant L858R/C797S
Procedure, shortened: (§1)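 Kinase activity is measured by TR-FRET phosphopeptide detection. Compounds span 0.003 μM to 10 μM; the 1 h reaction at room temperature is quenched with EDTA, then labelled antibody (2 nM) is incubated 60 min before reading.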

EGFR Del19/C797S = EGFR Del19/C797S (Homo sapiens, UniProt P00533, C797S/DEL746-750); assay: Biochemical EGFR kinase inhibition assay (Lance Ultra TR-FRET), double mutant del19/C797S
Chain of EGFR Del19/C797S (P00533 with tags, fused parts or gaps DEL746-750/C797S): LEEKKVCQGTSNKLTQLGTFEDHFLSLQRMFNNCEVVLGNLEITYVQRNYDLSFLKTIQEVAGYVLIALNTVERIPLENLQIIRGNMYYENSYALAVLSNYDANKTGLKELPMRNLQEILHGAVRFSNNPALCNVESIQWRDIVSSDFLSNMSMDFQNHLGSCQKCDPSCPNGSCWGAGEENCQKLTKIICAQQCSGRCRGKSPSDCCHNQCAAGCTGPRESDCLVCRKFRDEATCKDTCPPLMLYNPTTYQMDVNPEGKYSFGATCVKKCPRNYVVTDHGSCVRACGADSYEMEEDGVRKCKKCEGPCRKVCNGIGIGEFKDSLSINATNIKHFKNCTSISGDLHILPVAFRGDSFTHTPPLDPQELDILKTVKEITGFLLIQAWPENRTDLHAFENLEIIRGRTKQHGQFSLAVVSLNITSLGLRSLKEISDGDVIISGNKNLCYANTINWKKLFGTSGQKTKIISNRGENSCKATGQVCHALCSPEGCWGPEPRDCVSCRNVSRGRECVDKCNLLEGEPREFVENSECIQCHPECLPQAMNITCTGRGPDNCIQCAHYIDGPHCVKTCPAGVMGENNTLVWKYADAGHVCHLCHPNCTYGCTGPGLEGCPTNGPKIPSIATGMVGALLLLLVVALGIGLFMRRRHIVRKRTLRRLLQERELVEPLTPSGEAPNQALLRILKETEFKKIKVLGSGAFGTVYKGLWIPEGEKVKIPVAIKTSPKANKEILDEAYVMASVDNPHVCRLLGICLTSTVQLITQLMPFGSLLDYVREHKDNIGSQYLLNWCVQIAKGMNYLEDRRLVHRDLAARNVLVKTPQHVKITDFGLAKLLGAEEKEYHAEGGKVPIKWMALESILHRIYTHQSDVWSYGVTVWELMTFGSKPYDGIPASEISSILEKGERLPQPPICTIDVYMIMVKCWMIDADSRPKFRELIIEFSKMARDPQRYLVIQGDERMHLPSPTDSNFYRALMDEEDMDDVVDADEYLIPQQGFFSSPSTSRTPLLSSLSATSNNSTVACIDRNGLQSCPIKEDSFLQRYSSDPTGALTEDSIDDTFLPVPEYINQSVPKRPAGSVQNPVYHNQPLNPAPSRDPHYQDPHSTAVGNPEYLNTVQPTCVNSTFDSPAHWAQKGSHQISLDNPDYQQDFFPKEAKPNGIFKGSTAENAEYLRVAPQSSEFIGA
Procedure, shortened: as §1

EGFR Del19/T790M/C797S = EGFR Del19/T790M/C797S (Homo sapiens, UniProt P00533, C797S/DEL746-750/T790M); assay: Biochemical EGFR kinase inhibition assay (Lance Ultra TR-FRET), triple mutant del19/T790M/C797S
Chain of EGFR Del19/T790M/C797S (P00533 with tags, fused parts or gaps DEL746-750/T790M/C797S): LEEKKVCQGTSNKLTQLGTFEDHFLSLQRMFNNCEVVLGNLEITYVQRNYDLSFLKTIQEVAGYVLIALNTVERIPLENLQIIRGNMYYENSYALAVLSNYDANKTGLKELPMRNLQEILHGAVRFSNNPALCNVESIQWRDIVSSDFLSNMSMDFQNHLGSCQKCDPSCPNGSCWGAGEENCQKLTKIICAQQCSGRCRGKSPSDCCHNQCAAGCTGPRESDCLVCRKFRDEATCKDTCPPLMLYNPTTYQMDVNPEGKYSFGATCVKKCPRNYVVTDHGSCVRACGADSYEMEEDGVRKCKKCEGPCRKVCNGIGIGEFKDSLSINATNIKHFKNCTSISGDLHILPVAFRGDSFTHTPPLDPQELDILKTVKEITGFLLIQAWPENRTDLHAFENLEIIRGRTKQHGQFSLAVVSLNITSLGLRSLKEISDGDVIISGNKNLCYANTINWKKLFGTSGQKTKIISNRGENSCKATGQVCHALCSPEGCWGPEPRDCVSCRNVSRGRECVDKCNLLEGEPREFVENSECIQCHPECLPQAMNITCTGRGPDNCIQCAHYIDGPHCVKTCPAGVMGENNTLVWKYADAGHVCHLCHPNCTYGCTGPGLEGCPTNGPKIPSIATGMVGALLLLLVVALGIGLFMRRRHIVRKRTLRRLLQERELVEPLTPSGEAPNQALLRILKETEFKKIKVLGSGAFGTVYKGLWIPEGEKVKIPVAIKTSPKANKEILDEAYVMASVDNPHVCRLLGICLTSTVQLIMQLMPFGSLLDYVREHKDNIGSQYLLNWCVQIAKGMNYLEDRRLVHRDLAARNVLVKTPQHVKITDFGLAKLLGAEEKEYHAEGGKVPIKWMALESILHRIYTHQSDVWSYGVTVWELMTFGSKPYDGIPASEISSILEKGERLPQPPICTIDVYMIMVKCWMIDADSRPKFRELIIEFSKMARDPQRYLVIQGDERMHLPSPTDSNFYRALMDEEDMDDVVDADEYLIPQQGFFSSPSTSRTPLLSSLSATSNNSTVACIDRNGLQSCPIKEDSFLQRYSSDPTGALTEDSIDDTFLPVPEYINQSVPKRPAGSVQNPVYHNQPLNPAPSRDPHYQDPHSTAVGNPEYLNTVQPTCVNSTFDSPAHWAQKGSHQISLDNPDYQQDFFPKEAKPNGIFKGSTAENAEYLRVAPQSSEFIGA
Procedure, shortened: as §1

EGFR L858R/T790M/C797S = EGFR L858R/T790M/C797S (Homo sapiens, UniProt P00533, C797S/L858R/T790M); assay: Biochemical EGFR kinase inhibition assay (Lance Ultra TR-FRET), triple mutant L858R/T790M/C797S
Chain of EGFR L858R/T790M/C797S (P00533 25-1210 T790M/C797S/L858R): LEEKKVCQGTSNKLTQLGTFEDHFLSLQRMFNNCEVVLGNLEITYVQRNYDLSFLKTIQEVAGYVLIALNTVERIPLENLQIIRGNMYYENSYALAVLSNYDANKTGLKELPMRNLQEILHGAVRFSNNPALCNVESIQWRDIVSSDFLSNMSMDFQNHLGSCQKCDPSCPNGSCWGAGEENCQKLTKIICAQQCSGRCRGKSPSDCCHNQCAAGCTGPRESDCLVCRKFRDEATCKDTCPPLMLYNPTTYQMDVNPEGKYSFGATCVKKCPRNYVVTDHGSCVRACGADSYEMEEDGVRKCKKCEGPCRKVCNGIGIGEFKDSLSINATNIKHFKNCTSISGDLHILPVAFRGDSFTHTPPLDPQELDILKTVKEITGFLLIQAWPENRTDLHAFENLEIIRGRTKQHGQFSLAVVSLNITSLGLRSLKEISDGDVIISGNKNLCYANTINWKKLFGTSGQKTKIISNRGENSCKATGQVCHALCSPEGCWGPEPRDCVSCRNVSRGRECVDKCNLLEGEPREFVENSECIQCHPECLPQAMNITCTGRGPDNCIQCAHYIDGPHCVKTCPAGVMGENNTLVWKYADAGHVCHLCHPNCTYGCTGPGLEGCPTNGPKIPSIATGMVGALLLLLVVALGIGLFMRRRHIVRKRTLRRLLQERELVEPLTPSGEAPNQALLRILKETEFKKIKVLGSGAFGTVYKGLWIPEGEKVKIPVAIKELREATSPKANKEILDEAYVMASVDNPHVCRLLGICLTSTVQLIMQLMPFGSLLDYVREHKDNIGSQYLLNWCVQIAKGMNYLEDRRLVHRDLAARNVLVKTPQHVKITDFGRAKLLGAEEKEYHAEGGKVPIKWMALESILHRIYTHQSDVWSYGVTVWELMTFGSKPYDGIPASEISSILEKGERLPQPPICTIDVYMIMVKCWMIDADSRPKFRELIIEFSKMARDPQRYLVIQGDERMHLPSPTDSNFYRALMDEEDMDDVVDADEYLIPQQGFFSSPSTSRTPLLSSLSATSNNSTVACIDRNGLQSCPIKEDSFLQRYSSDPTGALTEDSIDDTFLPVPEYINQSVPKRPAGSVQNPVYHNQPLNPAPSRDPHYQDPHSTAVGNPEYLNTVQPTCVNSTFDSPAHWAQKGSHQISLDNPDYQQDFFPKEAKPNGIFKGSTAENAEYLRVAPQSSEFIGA
Procedure, shortened: as §1

EGFR wildtype (WT) = EGFR wildtype (WT) (Homo sapiens, UniProt P00533); assay: Biochemical EGFR kinase inhibition assay (Lance Ultra TR-FRET), wildtype
Chain of EGFR wildtype (WT) (P00533 25-1210): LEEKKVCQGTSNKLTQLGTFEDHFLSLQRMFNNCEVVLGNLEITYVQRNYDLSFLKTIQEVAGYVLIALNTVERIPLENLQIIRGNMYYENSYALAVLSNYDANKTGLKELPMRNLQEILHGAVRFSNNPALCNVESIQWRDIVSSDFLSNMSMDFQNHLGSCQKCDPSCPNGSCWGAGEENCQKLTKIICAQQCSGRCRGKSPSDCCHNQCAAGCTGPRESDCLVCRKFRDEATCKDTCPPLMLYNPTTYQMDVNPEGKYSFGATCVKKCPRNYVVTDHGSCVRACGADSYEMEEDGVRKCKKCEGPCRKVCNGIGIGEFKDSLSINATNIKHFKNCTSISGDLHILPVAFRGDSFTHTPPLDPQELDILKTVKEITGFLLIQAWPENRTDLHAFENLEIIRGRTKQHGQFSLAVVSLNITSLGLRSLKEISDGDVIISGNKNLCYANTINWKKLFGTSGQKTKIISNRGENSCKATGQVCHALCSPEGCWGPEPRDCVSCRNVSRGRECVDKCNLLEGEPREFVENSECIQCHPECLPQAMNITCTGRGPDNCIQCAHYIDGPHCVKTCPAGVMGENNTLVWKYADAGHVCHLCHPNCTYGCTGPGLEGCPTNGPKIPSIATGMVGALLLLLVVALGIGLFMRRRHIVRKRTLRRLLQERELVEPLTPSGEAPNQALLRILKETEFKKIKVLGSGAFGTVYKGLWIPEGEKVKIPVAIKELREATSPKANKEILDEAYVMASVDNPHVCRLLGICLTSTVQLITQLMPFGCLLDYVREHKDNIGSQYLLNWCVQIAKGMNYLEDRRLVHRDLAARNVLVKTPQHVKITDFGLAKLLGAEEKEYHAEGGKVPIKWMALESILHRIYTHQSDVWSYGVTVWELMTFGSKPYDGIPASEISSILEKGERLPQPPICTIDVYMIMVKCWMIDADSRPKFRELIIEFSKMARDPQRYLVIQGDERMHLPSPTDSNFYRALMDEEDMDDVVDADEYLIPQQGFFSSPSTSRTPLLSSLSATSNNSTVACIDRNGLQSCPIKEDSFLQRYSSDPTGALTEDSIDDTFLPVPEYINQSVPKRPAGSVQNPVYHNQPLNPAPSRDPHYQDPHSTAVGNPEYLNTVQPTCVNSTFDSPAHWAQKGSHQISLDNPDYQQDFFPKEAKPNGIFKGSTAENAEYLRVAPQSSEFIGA
Procedure, shortened: as §1

[1] = ATP at Km, read-out: IC50 L858R/C797S (nM), Km ATP
[2] = IC50 L858R/C797S (nM), 100 μM ATP
[3] = ATP at Km, read-out: IC50 Del19/C797S (nM), Km ATP
[4] = IC50 Del19/C797S (nM), 100 μM ATP
[5] = ATP at Km, read-out: IC50 Del19/T790M/C797S (nM), Km ATP
[6] = IC50 Del19/T790M/C797S (nM), 100 μM ATP
[7] = ATP at Km, read-out: IC50 L858R/T790M/C797S (nM), Km ATP
[8] = IC50 L858R/T790M/C797S (nM), 100 μM ATP
[9] = ATP at Km, read-out: IC50 WT (nM), Km ATP
[10] = Km ATP, read-out: IC50 L858R/C797S (nM) Km ATP
[11] = Km ATP, read-out: IC50 Del19/C797S (nM) Km ATP
[12] = Km ATP, read-out: IC50 Del19/T790M/C797S (nM) Km ATP
[13] = Km ATP, read-out: IC50 L858R/T790M/C797S (nM) Km ATP
[14] = Km ATP, read-out: IC50 WT (nM) Km ATP

IC50 (EGFR L858R/C797S; [1]) [nM] | IC50 (EGFR L858R/C797S; [2]) [nM] | IC50 (EGFR Del19/C797S; [3]) [nM] | IC50 (EGFR Del19/C797S; [4]) [nM] | IC50 (EGFR Del19/T790M/C797S; [5]) [nM] | IC50 (EGFR Del19/T790M/C797S; [6]) [nM] | IC50 (EGFR L858R/T790M/C797S; [7]) [nM] | IC50 (EGFR L858R/T790M/C797S; [8]) [nM] | IC50 (EGFR wildtype (WT); [9]) [nM] | IC50 (EGFR wildtype (WT); IC50 WT (nM), 100 μM ATP) [nM] | IC50 (EGFR L858R/C797S; Km ATP, read-out: IC50 L858R/C797S (nM), Km ATP) [nM] | IC50 (EGFR Del19/C797S; Km ATP, read-out: IC50 Del19/C797S (nM), Km ATP) [nM] | IC50 (EGFR Del19/T790M/C797S; Km ATP, read-out: IC50 Del19/T790M/C797S (nM), Km ATP) [nM] | IC50 (EGFR L858R/T790M/C797S; Km ATP, read-out: IC50 L858R/T790M/C797S (nM), Km ATP) [nM] | IC50 (EGFR wildtype (WT); Km ATP, read-out: IC50 WT (nM), Km ATP) [nM] | IC50 (EGFR L858R/C797S; [10]) [nM] | IC50 (EGFR Del19/C797S; [11]) [nM] | IC50 (EGFR Del19/T790M/C797S; [12]) [nM] | IC50 (EGFR L858R/T790M/C797S; [13]) [nM] | IC50 (EGFR wildtype (WT); [14]) [nM] | SMILES
30.6 | 391 | 4.7 | 10.5 | 7.1 | 3.1 | 2.6 | 6.8 | 238 | > 10000 | – | – | – | – | – | – | – | – | – | – | Nc1cccc(C#Cc2cnc(Nc3ccnc(-c4cnn(S(=O)(=O)C5CC5)c4)n3)cc2N[C@@H]2CCC[C@H](O)C2)c1 [Example 169, (1 S,3R)-3-((5-((3-Aminophenyl)ethynyl)-2-((2-(1-(cyclopropylsulfonyl)-1H-pyrazol-4-yl)pyrimidin-4-yl)amino)pyridin-4-yl)amino)cyclohexan-1-ol]
1 | 38.1 | 1.2 | 3.2 | 0.1 | 0.1 | 0.1 | 0.2 | 4.1 | 4180 | – | – | – | – | – | – | – | – | – | – | CN1CCC2(CCN(c3cc(Nc4ccnc(-c5cnn(S(=O)(=O)C6CC6)c5)n4)ncc3C#Cc3cnn(C)c3)CC2)C1 [Example 297, 2-(1-(Cyclopropylsulfonyl)-1H-pyrazol-4-yl)-N-(5-((1-methyl-1H-pyrazol-4-yl)ethynyl)-4-(2-methyl-2,8-diazaspiro[4.5]decan-8-yl)pyridin-2-yl)pyrimidin-4-amine formate]
1.9 | 11.2 | 3.1 | 7.9 | 2 | 9.5 | – | 3 | 16.2 | > 10000 | – | – | – | – | – | – | – | – | – | – | O=S(=O)(C1CC1)n1cc(-c2nccc(Nc3cc(N4CCC5(CCO5)CC4)c(C#Cc4cccnc4)cn3)n2)cn1 [Example 283, 2-(1-(Cyclopropylsulfonyl)-1H-pyrazol-4-yl)-N-(5-(pyridin-3-ylethynyl)-4-(1-oxa-7-azaspiro[3.5]nonan-7-yl)pyridin-2-yl)pyrimidin-4-amine]
– | 40.8 | – | 7.3 | – | 2 | – | 1.6 | – | > 10000 | 10.5 | 5 | 1.6 | 0.7 | 26 | – | – | – | – | – | O=S(=O)(C1CC1)n1cc(-c2nccc(Nc3cc(N[C@H]4CC[C@@H](CO)CC4)c(C#Cc4cnn(CC(F)(F)F)c4)cn3)n2)cn1 [Example 340, ((1s,4s)-4-((2-((2-(1-(Cyclopropylsulfonyl)-1H-pyrazol-4-yl)pyrimidin-4-yl)amino)-5-((1-(2,2,2-trifluoroethyl)-1H-pyrazol-4-yl)ethynyl)pyridin-4-yl)amino)cyclohexyl)methanol]
– | 27.5 | – | 3.8 | – | 1.9 | – | 1.1 | – | > 10000 | – | – | – | – | – | 2.2 | 2.8 | 0.7 | 0.4 | 52.8 | Cn1cc(C#Cc2cnc(Nc3ccnc(-c4cnn(S(=O)(=O)C5CC5)c4)n3)cc2N2CCCC(CO)C2)cn1 (stereo not drawn) [Example 9, (1-(2-((2-(1-(Cyclopropylsulfonyl)-1H-pyrazol-4-yl)pyrimidin-4-yl)amino)-5-((1-methyl-1H-pyrazol-4-yl)ethynyl)pyridin-4-yl)piperidin-3-yl)methanol]
– | 1350 | – | 1950 | – | 129 | – | 160 | > 10000 | > 10000 | – | – | – | – | – | – | – | – | – | – | CC1(CO)CCN(c2cc(Nc3ccnc(-c4ccc(F)nc4)n3)ncc2C#Cc2cnn(C(F)(F)F)c2)CC1 [Example 269, (1-(2-((2-(6-Fluoropyridin-3-yl)pyrimidin-4-yl)amino)-5-((1-(trifluoromethyl)-1H-pyrazol-4-yl)ethynyl)pyridin-4-yl)-4-methylpiperidin-4-yl)methanol]
– | – | – | – | – | – | – | – | – | – | – | – | – | – | – | 34.6 | 71.3 | 1.3 | 5.4 | 230 | CN1CCN(c2cc(Nc3ccnc(-c4cnn(S(=O)(=O)C5CC5)c4)n3)ncc2C#Cc2cnn(C)c2)CC1 [Example 1, 2-(1-(Cyclopropylsulfonyl)-1H-pyrazol-4-yl)-N-(5-((1-methyl-1H-pyrazol-4-yl)ethynyl)-4-(4-methylpiperazin-1-yl)pyridin-2-yl)pyrimidin-4-amine]
